From patent publication US20200000916A1, “REGIONALLY ACTIVATED DRUG DELIVERY NANOPARTICLES” (The Regents of the University of California, priority 2013, published 2020) come the findings set out here.

Entries after “also recorded” stand apart in the source; their conditions may differ.

In this assay the test system is PTK2 kidney epithelial cells. Kind of assay: Cellular localization by live fluorescence microscopy. In kind it is cell-based. Conditions: 2 μM, 2 hours incubation, before/without 365 nm light exposure; hydrochloride. The text has this: The intracellular localization of the DOX-PCB nanoparticles and pure DOX was studied using the PTK2 epithelial cell line. These cells were used because they are susceptible to DOX and remain flat during mitosis, allowing for enhanced visualization of the nuclear region. This visualization capability was important since one of the main therapeutic modes of action for DOX is through DNA intercalation. The DOX-PCB nanoparticles and pure DOX are both naturally fluorescent which allowed them to be easily tracked through the cell. The PTK2 cells were plated in glass bottom petri dishes (MatTek Corporation, Ashland, Mass.) and were incubated in advanced MEM Media from Gibco (Invitrogen, Grand Island, N.Y.) with 2% fetal bovine serum, nonessential amino acids, 110 mg/L sodium pyruvate, and without penicillin-streptomycin or L-Glutamine.
A 1 ml media solution of DOX-PCB nanoparticles was prepared by first adding 10×DPBS to a 4.1 μM solution of DOX-PCB nanoparticles in water to achieve a 1×DPBS concentration, and then adding the resulting solution to a phenol-red free formulation of the advanced MEM media described above to achieve a final DOX-PCB content of 2 μM. This spiked media sample was then added to the glass bottom petri dish along with PTK2 cells seeded which had the previous incubation media removed. […]

`COc1cccc2c1C(=O)c1c(O)c3c(c(O)c1C2=O)C[C@@](O)(C(=O)CO)C[C@@H]3O[C@H]1C[C@H](N)[C@H](O)[C@H](C)O1.Cl` [DOX, Doxorubicin hydrochloride]: the intracellular localization entry was “strongly associate with the cell nuclei; also recorded: associate strongly with the cell nuclei”.
